Assay results taken from patent publication US9302999B2, “Substituted triazoles as herbicides” (E. I. DU PONT DE NEMOURS AND COMPANY, priority 2012, dated 2016).
Read-outs that look alike come from different tables or passages of the source.

System: pigweed (Amaranthus retroflexus)
Test: Test A pre-/postemergence: pigweed
Format: in vivo
Conditions: Amaranthus retroflexus, 240 h; for pest or weed control at 125 g/ha: 125 g ai/ha; for pest or weed control at 500 g/ha: 500 g ai/ha
How it was run: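 Each species received preemergence soil-directed spraying and, at the same time, postemergence treatment of seedlings 2–10 cm tall. Formulation: non-phytotoxic solvent mixture including surfactant. Response assessed visually about ten days on, relative to untreated controls, 0–100 scale.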

[1] = post-emergence, Postemergence, 0 to 100 scale, 0 is no effect, 100 is complete control, read-out: Pigweed plant response rating
[2] = post-emergence, Postemergence, visual rating on 0 to 100 scale (0 no effect, 100 complete control), approximately ten days, read-out: Pigweed plant response rating
[3] = pre-emergence, Preemergence, 0 to 100 scale where 0 is no effect and 100 is complete control, read-out: Plant response rating, Pigweed
[4] = pre-emergence, Preemergence, 0 to 100 scale (0 no effect, 100 complete control), read-out: Plant response rating, Pigweed

Compound | pest or weed control at 125 g/ha [1] | pest or weed control at 500 g/ha [2] | pest or weed control at 125 g/ha [3] | pest or weed control at 500 g/ha [4] | pest or weed control at 125 g/ha [4] | pest or weed control at 500 g/ha (pre-emergence, Preemergence, 0 to 100 scale, 0 is no effect, 100 is complete control, read-out: Plant response rating, Pigweed)
COCc1nn(-c2ccc(C(F)(F)F)cc2)nc1Oc1cccc(OC(F)(F)F)c1 [Compound 115, 4-(methoxymethyl)-5-[3-(trifluoromethoxy)phenoxy]-2-[4-(trifluoromethyl)phenyl]-2H-1,2,3-triazole] | 80% | 100% | 100% | 100% |  | 
FCc1nn(-c2ccc(C(F)(F)F)cc2)nc1Oc1cccc(OC(F)(F)F)c1 [Compound 116, 4-(fluoromethyl)-5-[3-(trifluoromethoxy)phenoxy]-2-[4-(trifluoromethyl)phenyl]-2H-1,2,3-triazole] | 50% | 100% | 50% | 100% |  | 
Cc1nn(-c2ccc(C(F)(F)F)cc2)nc1Oc1csc(C(F)(F)F)c1 [Compound 1, 4-methyl-2-[4-(trifluoromethyl)phenyl]-5-[[5-(trifluoromethyl)-3-thienyl]oxy]-2H-1,2,3-triazole] | 90% | 100% |  |  | 60% | 90%
